# According to ChEMBL document CHEMBL1156984, “Synthesis and biological evaluation of piperazinyl heterocyclic antagonists of the gonadotropin releasing hormone (GnRH) receptor” (Bioorg Med Chem Lett, 2010):
# pIC50: −log10 of the molar value.
# System: not listed separately
# Assay: Tmax in orchidectomized Sprague-Dawley rat at 30 mg/kg, po
# Assay type: ADME, organism-based
# Design: dose 30 mg/kg, route oral
# Details: male, in vivo
row,Structure (SMILES),Tmax [min]
1,CCn1cnc(CN2CCN(c3cccn4cc(-c5ccc(C(C)(C)C)cc5)nc34)CC2)c1C,48

# System: not listed separately
# Assay: Volume of distribution at steady state in orchidectomized Sprague-Dawley rat at 3 mg/kg, iv
# Assay type: ADME, organism-based
# Design: dose 3 mg/kg, route intravenous
# Details: male, in vivo, read-out: Vdss
row,Structure (SMILES),Vd [L/kg]
1,CCn1cnc(CN2CCN(c3cccn4cc(-c5ccc(C(C)(C)C)cc5)nc34)CC2)c1C,3.5

# System: not listed separately
# Assay: AUC (0 to infinity) in orchidectomized Sprague-Dawley rat at 1 mg/kg, iv
# Assay type: ADME, organism-based
# Design: time infinity, dose 1 mg/kg, route intravenous
# Details: male, plasma
row,Structure (SMILES),AUC(0-inf) [ng·h/mL]
1,CCn1cnc(CN2CCN(c3cccc4[nH]c(-c5ccc(C(C)(C)C)cc5)nc34)CC2)c1C,124

# System: not listed separately
# Assay: Solubility at pH 7.4
# Assay type: physicochemical
# Details: buffer
row,Structure (SMILES),solubility [µg/mL]
1,CCn1cnc(CN2CCN(c3cccn4cc(-c5ccc(C(C)(C)C)cc5)nc34)CC2)c1C,9
2,CCc1nc(CN2CCN(c3cccn4cc(-c5ccc(C(C)(C)C)cc5)nc34)CC2)c(C)[nH]1,3
3,CCn1cnc(CN2CCN(c3cccc4[nH]c(-c5ccc(C(C)(C)C)cc5)nc34)CC2)c1C,3
4,CCc1nc(C)c(CN2CCN(c3cccc4[nH]c(-c5ccc(C(C)(C)C)cc5)nc34)CC2)[nH]1,20
5,CCn1cc(CN2CCN(c3cccn4cc(-c5ccc(C(C)(C)C)cc5)nc34)CC2)c(=O)[nH]c1=O,6

# System: not listed separately
# Assay: Permeability by PAMPA method
# Assay type: ADME
# Details: read-out: permeability
row,Structure (SMILES),Papp [×10⁻⁶ cm/s]
1,CCn1cnc(CN2CCN(c3cccn4cc(-c5ccc(C(C)(C)C)cc5)nc34)CC2)c1C,1.1
2,CCc1nc(CN2CCN(c3cccn4cc(-c5ccc(C(C)(C)C)cc5)nc34)CC2)c(C)[nH]1,0.2
3,CCn1cnc(CN2CCN(c3cccc4[nH]c(-c5ccc(C(C)(C)C)cc5)nc34)CC2)c1C,2.7
4,CCn1cc(CN2CCN(c3cccn4cc(-c5ccc(C(C)(C)C)cc5)nc34)CC2)c(=O)[nH]c1=O,1.2

# System: not listed separately
# Assay: Cmax in orchidectomized Sprague-Dawley rat at 1 mg/kg, iv
# Assay type: ADME, organism-based
# Design: dose 1 mg/kg, route intravenous
# Details: male, in vivo
row,Structure (SMILES),Cmax [ng/mL]
1,CCn1cnc(CN2CCN(c3cccc4[nH]c(-c5ccc(C(C)(C)C)cc5)nc34)CC2)c1C,458

# Target: T1, Gonadotropin-releasing hormone receptor (Homo sapiens) (UniProt P30968)
# T1 sequence (whole entry): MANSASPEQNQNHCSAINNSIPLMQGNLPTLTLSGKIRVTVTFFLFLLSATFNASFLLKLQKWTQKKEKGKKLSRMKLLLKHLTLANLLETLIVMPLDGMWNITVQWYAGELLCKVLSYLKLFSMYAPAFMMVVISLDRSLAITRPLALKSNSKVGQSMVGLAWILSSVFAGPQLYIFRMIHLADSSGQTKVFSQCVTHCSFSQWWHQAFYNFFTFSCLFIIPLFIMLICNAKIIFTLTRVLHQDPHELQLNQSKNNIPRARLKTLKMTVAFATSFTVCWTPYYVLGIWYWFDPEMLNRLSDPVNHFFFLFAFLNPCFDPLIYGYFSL
# Assay: Displacement of [125I]D-Trp6-GnRH from human recombinant GNRH receptor at 500 nM by scintillation counting
# Details: not given
row,Structure (SMILES),inhibition [%]
1,CCc1nc(CN2CCN(c3cccc4sc(-c5ccc(C(C)(C)C)cc5)nc34)CC2)c(C)[nH]1,70
2,CCc1nc(CN2CCN(c3cccc4oc(-c5ccc(C(C)(C)C)cc5)nc34)CC2)c(C)[nH]1,61
3,CCc1nc(CN2CCN(c3ccnc4[nH]c(-c5ccc(C(C)(C)C)cc5)nc34)CC2)c(C)[nH]1,32

# Target: Cytochrome P450 2C9 (Homo sapiens, UniProt P11712)
# Sequence (P11712 whole entry): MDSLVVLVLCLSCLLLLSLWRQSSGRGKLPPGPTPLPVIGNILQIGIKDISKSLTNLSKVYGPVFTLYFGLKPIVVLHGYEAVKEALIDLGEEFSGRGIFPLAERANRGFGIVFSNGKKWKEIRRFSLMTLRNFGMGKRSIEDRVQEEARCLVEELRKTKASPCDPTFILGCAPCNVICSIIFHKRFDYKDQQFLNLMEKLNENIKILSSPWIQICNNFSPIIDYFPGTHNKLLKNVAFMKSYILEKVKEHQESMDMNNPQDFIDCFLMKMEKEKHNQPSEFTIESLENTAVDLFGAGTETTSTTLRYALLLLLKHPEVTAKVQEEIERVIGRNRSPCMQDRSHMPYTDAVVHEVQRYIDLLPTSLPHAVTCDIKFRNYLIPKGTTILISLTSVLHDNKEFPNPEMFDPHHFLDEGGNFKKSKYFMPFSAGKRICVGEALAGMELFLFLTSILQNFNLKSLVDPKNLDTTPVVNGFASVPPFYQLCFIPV
# Assay: Inhibition of CYP2C9
# Assay type: ADME
# Details: not given
row,Structure (SMILES),inhibition (INH) [%]
1,CCn1cnc(CN2CCN(c3cccn4cc(-c5ccc(C(C)(C)C)cc5)nc34)CC2)c1C,10
2,CCc1nc(CN2CCN(c3cccn4cc(-c5ccc(C(C)(C)C)cc5)nc34)CC2)c(C)[nH]1,6
3,CCn1cc(CN2CCN(c3cccn4cc(-c5ccc(C(C)(C)C)cc5)nc34)CC2)c(=O)[nH]c1=O,0

# Target: T2, Gonadotropin-releasing hormone receptor (Rattus norvegicus, UniProt P30969)
# T2 sequence (P30969 whole entry): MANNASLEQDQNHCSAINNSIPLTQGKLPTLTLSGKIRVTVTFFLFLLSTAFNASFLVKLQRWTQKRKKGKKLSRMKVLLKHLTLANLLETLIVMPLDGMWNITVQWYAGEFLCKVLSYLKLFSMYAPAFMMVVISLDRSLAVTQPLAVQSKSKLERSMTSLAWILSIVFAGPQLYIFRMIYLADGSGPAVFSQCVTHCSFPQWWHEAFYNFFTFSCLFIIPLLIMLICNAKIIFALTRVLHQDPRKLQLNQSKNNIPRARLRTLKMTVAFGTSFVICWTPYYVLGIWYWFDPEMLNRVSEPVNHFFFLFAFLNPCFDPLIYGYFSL
# Assay: Displacement of [125I]D-Trp6-GnRH from rat recombinant GNRH receptor by scintillation counting
# Details: not given
row,Structure (SMILES),pIC50
1,CCn1cnc(CN2CCN(c3cccn4cc(-c5ccc(C(C)(C)C)cc5)nc34)CC2)c1C,7.92
2,CCc1nc(CN2CCN(c3cccn4cc(-c5ccc(C(C)(C)C)cc5)nc34)CC2)c(C)[nH]1,7.43
3,CCc1nc(C)c(CN2CCN(c3cccc4[nH]c(-c5ccc(C(C)(C)C)cc5)nc34)CC2)[nH]1,7.47
4,CCn1cc(CN2CCN(c3cccn4cc(-c5ccc(C(C)(C)C)cc5)nc34)CC2)c(=O)[nH]c1=O,8.24

# Target: Cytochrome P450 2D6 (Homo sapiens, UniProt P10635)
# Sequence (P10635 whole entry): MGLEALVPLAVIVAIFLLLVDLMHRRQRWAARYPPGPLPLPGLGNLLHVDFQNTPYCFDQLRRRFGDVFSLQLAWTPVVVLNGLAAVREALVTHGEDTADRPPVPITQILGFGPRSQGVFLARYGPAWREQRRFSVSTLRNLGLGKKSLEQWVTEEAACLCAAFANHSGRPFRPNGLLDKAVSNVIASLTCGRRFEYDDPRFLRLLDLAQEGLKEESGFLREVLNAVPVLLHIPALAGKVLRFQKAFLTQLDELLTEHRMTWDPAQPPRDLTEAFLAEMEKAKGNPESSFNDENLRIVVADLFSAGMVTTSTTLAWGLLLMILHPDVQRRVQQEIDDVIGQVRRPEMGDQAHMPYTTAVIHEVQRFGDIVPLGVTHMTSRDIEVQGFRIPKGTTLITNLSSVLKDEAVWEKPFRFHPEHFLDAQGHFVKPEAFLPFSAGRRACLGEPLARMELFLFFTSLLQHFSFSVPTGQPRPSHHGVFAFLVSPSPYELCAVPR
# Assay: Inhibition of CYP2D6
# Assay type: ADME
# Details: not given
row,Structure (SMILES),inhibition (INH) [%]
1,CCn1cnc(CN2CCN(c3cccn4cc(-c5ccc(C(C)(C)C)cc5)nc34)CC2)c1C,9
2,CCc1nc(CN2CCN(c3cccn4cc(-c5ccc(C(C)(C)C)cc5)nc34)CC2)c(C)[nH]1,8
3,CCn1cc(CN2CCN(c3cccn4cc(-c5ccc(C(C)(C)C)cc5)nc34)CC2)c(=O)[nH]c1=O,0

# Target: T2, Gonadotropin-releasing hormone receptor
# Assay: Antagonist activity at GNRH receptor in rat pituitary cells assessed as inhibition of D-Trp6-GnRH-induced LH accumulation after 3 hrs by RIA
# Assay type: functional, cell-based, Pituitary gland cell
# Details: not given
row,Structure (SMILES),pIC50
1,CCn1cnc(CN2CCN(c3cccn4cc(-c5ccc(C(C)(C)C)cc5)nc34)CC2)c1C,6.38
2,CCc1nc(CN2CCN(c3cccn4cc(-c5ccc(C(C)(C)C)cc5)nc34)CC2)c(C)[nH]1,6.04
3,CCn1cnc(CN2CCN(c3cccc4[nH]c(-c5ccc(C(C)(C)C)cc5)nc34)CC2)c1C,6.70
4,CCc1nc(C)c(CN2CCN(c3cccc4[nH]c(-c5ccc(C(C)(C)C)cc5)nc34)CC2)[nH]1,6.80
5,CCn1cc(CN2CCN(c3cccn4cc(-c5ccc(C(C)(C)C)cc5)nc34)CC2)c(=O)[nH]c1=O,6.59

# System: not listed separately
# Assay: Half life in rat liver microsomes
# Assay type: ADME, Microsome
# Details: not given
row,Structure (SMILES),half-life [min]
1,CCn1cnc(CN2CCN(c3cccn4cc(-c5ccc(C(C)(C)C)cc5)nc34)CC2)c1C,11
2,CCc1nc(CN2CCN(c3cccn4cc(-c5ccc(C(C)(C)C)cc5)nc34)CC2)c(C)[nH]1,21
3,CCn1cc(CN2CCN(c3cccn4cc(-c5ccc(C(C)(C)C)cc5)nc34)CC2)c(=O)[nH]c1=O,6

# System: not listed separately
# Assay: AUC (0 to infinity) in orchidectomized Sprague-Dawley rat at 3 mg/kg, iv
# Assay type: ADME, organism-based
# Design: time infinity, dose 3 mg/kg, route intravenous
# Details: male, plasma
row,Structure (SMILES),AUC(0-inf) [ng·h/mL]
1,CCn1cnc(CN2CCN(c3cccn4cc(-c5ccc(C(C)(C)C)cc5)nc34)CC2)c1C,685

# System: not listed separately
# Assay: Half life in orchidectomized Sprague-Dawley rat at 1 mg/kg, iv
# Assay type: ADME, organism-based
# Design: dose 1 mg/kg, route intravenous
# Details: male, in vivo
row,Structure (SMILES),half-life [min]
1,CCn1cnc(CN2CCN(c3cccc4[nH]c(-c5ccc(C(C)(C)C)cc5)nc34)CC2)c1C,24

# Target: T3, Gonadotropin-releasing hormone receptor (Homo sapiens, UniProt P30968)
# T3 sequence (P30968 whole entry): T1 sequence (whole entry)
# Assay: Displacement of [125I]D-Trp6-GnRH from human recombinant GNRH receptor by scintillation counting
# Details: not given
row,Structure (SMILES),pIC50
1,CCn1cnc(CN2CCN(c3cccn4cc(-c5ccc(C(C)(C)C)cc5)nc34)CC2)c1C,8.17
2,CCc1nc(CN2CCN(c3cccn4cc(-c5ccc(C(C)(C)C)cc5)nc34)CC2)c(C)[nH]1,8.01
3,CCn1cnc(CN2CCN(c3cccc4[nH]c(-c5ccc(C(C)(C)C)cc5)nc34)CC2)c1C,8.24
4,CCc1nc(C)c(CN2CCN(c3cccc4[nH]c(-c5ccc(C(C)(C)C)cc5)nc34)CC2)[nH]1,8.00
5,CCn1cc(CN2CCN(c3cccn4cc(-c5ccc(C(C)(C)C)cc5)nc34)CC2)c(=O)[nH]c1=O,8.64

# System: not listed separately
# Assay: Cmax in orchidectomized Sprague-Dawley rat at 3 mg/kg, iv
# Assay type: ADME, organism-based
# Design: dose 3 mg/kg, route intravenous
# Details: male, in vivo
row,Structure (SMILES),Cmax [ng/mL]
1,CCn1cnc(CN2CCN(c3cccn4cc(-c5ccc(C(C)(C)C)cc5)nc34)CC2)c1C,1760

# System: not listed separately
# Assay: Half life in orchidectomized Sprague-Dawley rat at 30 mg/kg, po
# Assay type: ADME, organism-based
# Design: dose 30 mg/kg, route oral
# Details: male, in vivo
row,Structure (SMILES),half-life [min]
1,CCn1cnc(CN2CCN(c3cccn4cc(-c5ccc(C(C)(C)C)cc5)nc34)CC2)c1C,66
2,CCn1cnc(CN2CCN(c3cccc4[nH]c(-c5ccc(C(C)(C)C)cc5)nc34)CC2)c1C,132

# System: not listed separately
# Assay: Half life in orchidectomized Sprague-Dawley rat at 3 mg/kg, iv
# Assay type: ADME, organism-based
# Design: dose 3 mg/kg, route intravenous
# Details: male, in vivo
row,Structure (SMILES),half-life [min]
1,CCn1cnc(CN2CCN(c3cccn4cc(-c5ccc(C(C)(C)C)cc5)nc34)CC2)c1C,84

# System: not listed separately
# Assay: Oral bioavailability in orchidectomized Sprague-Dawley rat at 30 mg/kg
# Assay type: ADME, organism-based
# Details: male, in vivo
row,Structure (SMILES),bioavailability [%]
1,CCn1cnc(CN2CCN(c3cccn4cc(-c5ccc(C(C)(C)C)cc5)nc34)CC2)c1C,28

# Target: T3, Gonadotropin-releasing hormone receptor
# Assay: Antagonist activity at human recombinant GNRH receptor assessed as inhibition of D-Trp6-GNRH-induced IP accumulation after 1 hr by rapid filtration assay
# Assay type: functional
# Details: not given
row,Structure (SMILES),pIC50
1,CCn1cnc(CN2CCN(c3cccn4cc(-c5ccc(C(C)(C)C)cc5)nc34)CC2)c1C,7.39
2,CCc1nc(CN2CCN(c3cccn4cc(-c5ccc(C(C)(C)C)cc5)nc34)CC2)c(C)[nH]1,7.22
3,CCn1cnc(CN2CCN(c3cccc4[nH]c(-c5ccc(C(C)(C)C)cc5)nc34)CC2)c1C,7.82
4,CCc1nc(C)c(CN2CCN(c3cccc4[nH]c(-c5ccc(C(C)(C)C)cc5)nc34)CC2)[nH]1,7.74
5,CCn1cc(CN2CCN(c3cccn4cc(-c5ccc(C(C)(C)C)cc5)nc34)CC2)c(=O)[nH]c1=O,8.30

# System: not listed separately
# Assay: Cmax in orchidectomized Sprague-Dawley rat at 30 mg/kg, po
# Assay type: ADME, organism-based
# Design: dose 30 mg/kg, route oral
# Details: male, in vivo
row,Structure (SMILES),Cmax [ng/mL]
1,CCn1cnc(CN2CCN(c3cccn4cc(-c5ccc(C(C)(C)C)cc5)nc34)CC2)c1C,788
2,CCn1cnc(CN2CCN(c3cccc4[nH]c(-c5ccc(C(C)(C)C)cc5)nc34)CC2)c1C,533

# System: not listed separately
# Assay: Clearance in orchidectomized Sprague-Dawley rat at 3 mg/kg, iv
# Assay type: ADME, organism-based
# Design: dose 3 mg/kg, route intravenous
# Details: male, in vivo
row,Structure (SMILES),clearance [mL/min/kg]
1,CCn1cnc(CN2CCN(c3cccn4cc(-c5ccc(C(C)(C)C)cc5)nc34)CC2)c1C,75.1

# System: not listed separately
# Assay: AUC (0 to infinity) in orchidectomized Sprague-Dawley rat at 30 mg/kg, po
# Assay type: ADME, organism-based
# Design: time infinity, dose 30 mg/kg, route oral
# Details: male, plasma
row,Structure (SMILES),AUC(0-inf) [ng·h/mL]
1,CCn1cnc(CN2CCN(c3cccn4cc(-c5ccc(C(C)(C)C)cc5)nc34)CC2)c1C,1950
2,CCn1cnc(CN2CCN(c3cccc4[nH]c(-c5ccc(C(C)(C)C)cc5)nc34)CC2)c1C,3440

# Target: Cytochrome P450 3A4 (Homo sapiens, UniProt P08684)
# Sequence (P08684 whole entry): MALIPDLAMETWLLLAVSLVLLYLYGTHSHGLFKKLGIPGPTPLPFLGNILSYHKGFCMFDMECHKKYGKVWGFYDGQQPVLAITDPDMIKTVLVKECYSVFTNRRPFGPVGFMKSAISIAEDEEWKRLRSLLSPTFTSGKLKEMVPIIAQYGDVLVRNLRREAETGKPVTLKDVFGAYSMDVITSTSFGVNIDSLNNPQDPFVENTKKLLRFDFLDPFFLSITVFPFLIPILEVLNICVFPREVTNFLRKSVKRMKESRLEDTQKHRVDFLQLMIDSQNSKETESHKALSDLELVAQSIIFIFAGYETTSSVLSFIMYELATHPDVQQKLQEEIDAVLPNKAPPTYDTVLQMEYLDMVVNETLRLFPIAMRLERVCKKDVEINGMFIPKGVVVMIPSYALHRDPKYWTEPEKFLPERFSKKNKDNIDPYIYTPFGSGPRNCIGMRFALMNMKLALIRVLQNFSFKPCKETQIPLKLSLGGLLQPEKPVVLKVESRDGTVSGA
# Assay: Inhibition of CYP3A4
# Assay type: ADME
# Details: not given
row,Structure (SMILES),inhibition (INH) [%]
1,CCn1cnc(CN2CCN(c3cccn4cc(-c5ccc(C(C)(C)C)cc5)nc34)CC2)c1C,54
2,CCc1nc(CN2CCN(c3cccn4cc(-c5ccc(C(C)(C)C)cc5)nc34)CC2)c(C)[nH]1,78
3,CCn1cc(CN2CCN(c3cccn4cc(-c5ccc(C(C)(C)C)cc5)nc34)CC2)c(=O)[nH]c1=O,54
